# Test results: patent publication US10619138B2, “Herbicide-resistant hydroxyphenylpyruvate dioxygenases” (BASF SE, priority 2013, dated 2020)
# Several values for one entry are separate records, joined by “and”; a condition that tells them apart may be missing. Equal values may be shown once.
# How the values were obtained:
# [1] = tested on: transgenic Arabidopsis plants expressing Scenedesmus HPPD; test: Greenhouse herbicide spray test, transgenic plants (T2); format: in vivo, Arabidopsis thaliana; conditions: two weeks after treatment
# Excerpt: (§1) Additionally, T1 and T2 transgenic Arabidopsis plants can be tested for improved tolerance to HPPD-inhibiting herbicides in greenhouse studies. Herbicide injury scoring is done 2-3 weeks after treatment and is rated on a scale of 0 to 100%, 0% being no injury and 100% being complete death.
# (§2) Transgenic Arabidopsis plants were sprayed with a range of doses from 1.56-50 g/ha with HPPD-inhibiting herbicides and injury evaluations were taken two weeks after treatment. […] As depicted in Table 6, control plants are severely injured by all doses of herbicide applied, with at least 70% of leaf material being damaged at the lowest application rate. For example, transgenic plants expressing Scenedesmus HPPD have an excellent tolerance to all herbidcides tested. […] After application of Inhibitor 2, only 18% of leaf material was damaged resulting in a 5-fold tolerance compared to the WT at the highest application rate.
# [2] = tested on: transgenic Arabidopsis plants expressing Algoriphagus HPPD; test: as above; format: in vivo, Arabidopsis thaliana; conditions: two weeks after treatment
# Excerpt: as §1, §2
# [3] = tested on: transgenic Arabidopsis plants expressing Acidobacterium HPPD; test: as above; format: in vivo, Arabidopsis thaliana; conditions: two weeks after treatment
# Excerpt: as §1, §2
# [4] = tested on: Algoriphagus HPPD (SEQ ID NO: 22); test: In vitro HPPD activity assay, tolerance index; format: biochemical, Algoriphagus machipongonensis; conditions: normalized on Arabidopsis wild-type HPPD
# Method: (§3) The activity assay for HPPD is based on the analysis of homogentisic acid by reversed phase HPLC.
# (§4) The assay mixture can contain 150 mM potassium phosphate buffer pH 7.0, 50 mM L-ascorbic acid, 100 μM Catalase (Sigma-Aldrich), 1 μM FeSO4 and 0.2 units of purified HPPD enzyme in a total volume of 505 μl. 1 unit is defined as the amount of enzyme that is required to produce 1 nmol of HGA per minute at 20° C.
# (§5) The reaction is allowed to proceed for 45 min at room temperature. The reaction is stopped by the addition of 50 μl of 4.5 M phosphoric acid. The sample is filtered using a […] pore size PVDF filtration device.
# (§6) 5 μl of the cleared sample is analyzed on an UPLC HSS T3 column (particle size 1.8 μm, dimensions 2.1×50 mm; Waters) by isocratic elution using 90% 20 mM NaH2PO4 pH 2.2, 10% methanol (v/v).
# (§7) HGA is detected electrochemically at 750 mV (mode: DC; polarity: positive) and quantified by integrating peak areas (Empower software; Waters).
# (§8) Inhibitors are dissolved in DMSO (dimethylsulfoxide) to a concentration of 0.5 mM. From this stock solution serial five-fold dilutions are prepared in DMSO, which are used in the assay. The respective inhibitor solution accounts for 1% of the assay volume. Thus, final inhibitor concentrations range from 5 μM to 320 pM, respectively. Activities are normalized by setting the uninhibited enzyme activity to 100%. IC50 values are calculated using non-linear regression.
# (§9) Using methods which are described in the above examples or well known in the art, purified, recombinant wildtype HPPD enzymes are characterized with respect to their kinetic properties and sensitivity towards HPPD inhibiting herbicides. Apparent michaelis constants (Km) and maximal reaction velocities (Vmax) are calculated by non-linear regression with the software GraphPad Prism 5 (GraphPad Software, La Jolla, USA) using a substrate inhibition model. […] Weighted means (by standard error) of Km and IC50 values are calculated from at least three independent experiments. The Cheng-Prusoff equation for competitive inhibition (Cheng, Y. C.; Prusoff, W. H. Biochem Pharmacol 1973, 22, 3099-3108) is used to calculate dissociation constants (Ki).
# (§10) Field performance of the HPPD enzyme, which is used as a herbicide tolerance trait may depend not only on its lack of sensitivity towards HPPD inhibiting herbicides but also on its activity. To assess the potential performance of a herbicide tolerance trait a tolerance index (TI) is calculated using the following formula: […]
# (§11) Easy comparison and ranking of each trait is enabled by normalizing tolerance indexes on Arabidopsis wild-type HPPD.
# [5] = tested on: Acidobacterium HPPD (SEQ ID NO: 30); test: In vitro HPPD activity assay, tolerance index; format: biochemical, Acidobacterium capsulatum; conditions: normalized on Arabidopsis wild-type HPPD
# Method: as §3, §4, §5, §6, §7, §8, §9, §10, §11
# [6] = tested on: Microscilla HPPD (SEQ ID NO: 20); test: In vitro HPPD activity assay, tolerance index; format: biochemical, Microscilla marina; conditions: normalized on Arabidopsis wild-type HPPD
# Method: as §3, §4, §5, §6, §7, §8, §9, §10, §11
# [7] = molecular target: T1, Arabidopsis HPPD (SEQ ID NO: 42) (Arabidopsis thaliana, UniProt P93836); test: In vitro HPPD activity assay (HGA by HPLC), wildtype enzyme characterization; format: biochemical; conditions: for TI (normalized tolerance index): normalized on Arabidopsis wild-type HPPD, reference enzyme
# T1 construct: Arabidopsis (42); His tag; made in house; host or cells: E. coli BL21 (DE3)
# T1 sequence (P93836 1-445): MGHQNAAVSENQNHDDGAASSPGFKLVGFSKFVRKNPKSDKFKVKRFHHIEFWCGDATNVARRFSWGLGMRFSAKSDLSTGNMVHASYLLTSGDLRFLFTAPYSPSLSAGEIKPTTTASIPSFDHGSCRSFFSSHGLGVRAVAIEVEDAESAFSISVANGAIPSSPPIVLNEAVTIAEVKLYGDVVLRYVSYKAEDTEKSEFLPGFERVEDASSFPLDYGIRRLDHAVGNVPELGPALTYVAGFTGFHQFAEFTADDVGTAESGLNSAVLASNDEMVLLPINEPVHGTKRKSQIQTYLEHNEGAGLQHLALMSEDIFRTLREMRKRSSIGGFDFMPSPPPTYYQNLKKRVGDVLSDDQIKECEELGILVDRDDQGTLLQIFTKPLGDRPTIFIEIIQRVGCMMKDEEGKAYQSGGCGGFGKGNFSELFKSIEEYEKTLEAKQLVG
# Method: as §3, §4, §5, §6, §7
# Inhibitors are dissolved in DMSO (dimethylsulfoxide) to a concentration of 0.5 mM. From this stock solution serial five-fold dilutions are prepared in DMSO, which are used in the assay. The respective inhibitor solution accounts for 1% of the assay volume. […] Activities are normalized by setting the uninhibited enzyme activity to 100%. IC50 values are calculated using non-linear regression.
# Using methods which are described in the above examples or well known in the art, purified, recombinant wildtype HPPD enzymes are characterized with respect to their kinetic properties and sensitivity towards HPPD inhibiting herbicides. Apparent michaelis constants (Km) and maximal reaction velocities (Vmax) are calculated by non-linear regression with the software GraphPad Prism 5 (GraphPad Software, La Jolla, USA) using a substrate inhibition model. […] Weighted means (by standard error) of Km and IC50 values are calculated from at least three independent experiments.
# as §10, §11
# [8] = tested on: Mucilaginibacter HPPD (SEQ ID NO: 28); test: In vitro HPPD activity assay, tolerance index; format: biochemical, Mucilaginibacter paludis; conditions: normalized on Arabidopsis wild-type HPPD
# Method: as §3, §4, §5, §6, §7, §8, §9, §10, §11
# [9] = tested on: Pontibacter HPPD (SEQ ID NO: 16); test: In vitro HPPD activity assay, tolerance index; format: biochemical, Pontibacter sp.; conditions: normalized on Arabidopsis wild-type HPPD
# Method: as §3, §4, §5, §6, §7, §8, §9, §10, §11
# [10] = tested on: untransformed wild-type (WT) Arabidopsis plants; test: Greenhouse herbicide spray test, wild-type plants; format: in vivo, Arabidopsis thaliana; conditions: two weeks after treatment, mean of three plants
# Excerpt: as §1, §2
# [11] = tested on: Geodermatophilus HPPD (SEQ ID NO: 32); test: In vitro HPPD activity assay, tolerance index; format: biochemical, Geodermatophilus obscurus; conditions: normalized on Arabidopsis wild-type HPPD
# Method: as §3, §4, §5, §6, §7, §8, §9, §10, §11
# [12] = tested on: Herpetosiphon HPPD (SEQ ID NO: 26); test: In vitro HPPD activity assay, tolerance index; format: biochemical, Herpetosiphon aurantiacus; conditions: normalized on Arabidopsis wild-type HPPD
# Method: as §3, §4, §5, §6, §7, §8, §9, §10, §11
smiles,measurement,setting,value
"Cc1c(C(=O)c2cnn(C)c2O)ccc(S(C)(=O)=O)c1C1=NOCC1 [Inhibitor 1, [3-(4,5-dihydroisoxazol-3-yl)-2-methyl-4-methylsulfonyl-phenyl]-(5-hydroxy-1-methyl-pyrazol-4-yl)methanone]","Injury evaluation, scale 0-100%","[1]; Scenedesmus HPPD Event 1, 1.56 g/ha",35%
same,"Injury evaluation, scale 0-100%","[1]; Scenedesmus HPPD Event 1, 3.125 g/ha",58%
same,"Injury evaluation, scale 0-100%","[1]; Scenedesmus HPPD Event 1, 6.25 g/ha",68%
same,"Injury evaluation, scale 0-100%","[1]; Scenedesmus HPPD Event 2, 1.56 g/ha",45%
same,"Injury evaluation, scale 0-100%","[1]; Scenedesmus HPPD Event 2, 3.125 g/ha",55%
same,"Injury evaluation, scale 0-100%","[1]; Scenedesmus HPPD Event 2, 6.25 g/ha",65%
same,"Injury evaluation, scale 0-100%","[2]; Algoriphagus HPPD Event 1, 1.56 g/ha",60%
same,"Injury evaluation, scale 0-100%","[2]; Algoriphagus HPPD Event 1, 3.125 g/ha",70%
same,"Injury evaluation, scale 0-100%","[2]; Algoriphagus HPPD Event 1, 6.25 g/ha",90%
same,"Injury evaluation, scale 0-100%","[2]; Algoriphagus HPPD Event 2, 1.56 g/ha",48%
same,"Injury evaluation, scale 0-100%","[2]; Algoriphagus HPPD Event 2, 3.125 g/ha",68%
same,"Injury evaluation, scale 0-100%","[2]; Algoriphagus HPPD Event 2, 6.25 g/ha",78%
same,"Injury evaluation, scale 0-100%","[3]; Acidobacterium HPPD Event 1, 1.56 g/ha",43%
same,"Injury evaluation, scale 0-100%","[3]; Acidobacterium HPPD Event 1, 3.125 g/ha",78%
same,"Injury evaluation, scale 0-100%","[3]; Acidobacterium HPPD Event 1, 6.25 g/ha",94%
same,"Injury evaluation, scale 0-100%","[3]; Acidobacterium HPPD Event 2, 1.56 g/ha",48%
same,"Injury evaluation, scale 0-100%","[3]; Acidobacterium HPPD Event 2, 3.125 g/ha",78%
same,"Injury evaluation, scale 0-100%","[3]; Acidobacterium HPPD Event 2, 6.25 g/ha",97%
same,TI (normalized tolerance index),[4],23.7
same,TI (normalized tolerance index),[5],22 and 21.9
same,TI (normalized tolerance index),[6],9.1
same,Ki,[7],0.95 nM
same,TI (normalized tolerance index),[7],1
same,TI (tolerance index),[7]; not normalized,0.95E−3
same,TI (normalized tolerance index),[8],56.8
same,TI (normalized tolerance index),[9],5.3
same,"Injury evaluation, scale 0-100%",[10]; 1.56 g/ha,88%
same,"Injury evaluation, scale 0-100%",[10]; 3.125 g/ha,90%
same,"Injury evaluation, scale 0-100%",[10]; 6.25 g/ha,90%
"CC1=NOC(c2c(Cl)ccc(C3=C(O)c4ncccc4C(C)(C)S3(=O)=O)c2Cl)C1 (centres unmarked) [Inhibitor 7, 7-[2,4-dichloro-3-(3-methyl-4,5-dihydroisoxazol-5-yl)phenyl]-5,5-dimethyl-6,6-dioxo-thiopyrano[4,3-b]pyridin-8-ol]",TI (normalized tolerance index),[4],448 and 447.5
same,TI (normalized tolerance index),[5],239 and 238.9
same,TI (normalized tolerance index),[6],337.7
same,TI (normalized tolerance index),[7],1
same,TI (normalized tolerance index),[8],62.6
same,TI (normalized tolerance index),[9],107.7
"CC1(C)c2cccnc2C(O)=C(c2ccc(Cl)nc2Cl)S1(=O)=O [Inhibitor 8, 7-(2,6-dichloro-3-pyridyl)-5,5-dimethyl-6,6-dioxo-thiopyrano[4,3-b]pyridin-8-ol]",TI (normalized tolerance index),[4],73.7
same,TI (normalized tolerance index),[5],35 and 34.6
same,TI (normalized tolerance index),[6],65.9
same,TI (normalized tolerance index),[7],1
same,TI (normalized tolerance index),[8],26
same,TI (normalized tolerance index),[9],13.7
"CC1(C)c2cccnc2C(O)=C(c2c(F)ccc(Cl)c2Br)S1(=O)=O [Inhibitor 9, 7-(2-bromo-3-chloro-6-fluoro-phenyl)-5,5-dimethyl-6,6-dioxo-thiopyrano[4,3-b]pyridin-8-ol]",TI (normalized tolerance index),[4],42.8
same,TI (normalized tolerance index),[5],20 and 20.2
same,TI (normalized tolerance index),[6],22.8
same,TI (normalized tolerance index),[7],1
same,TI (normalized tolerance index),[11],tolerant
same,TI (normalized tolerance index),[9],3.9
same,TI (normalized tolerance index),[12],tolerant
"Cc1nonc1NC(=O)c1ccc(S(C)(=O)=O)c(S(C)(=O)=O)c1C [Inhibitor 10, 2-methyl-N-(4-methyl-1,2,5-oxadiazol-3-yl)-3,4-bis(methylsulfonyl)benzamide]",TI (normalized tolerance index),[4],19
same,TI (normalized tolerance index),[6],8.3
same,TI (normalized tolerance index),[7],1
same,TI (normalized tolerance index),[8],34.1
same,TI (normalized tolerance index),[9],6
